The source of these data is ChEMBL document CHEMBL2331130, “Synthesis and antibacterial activity of 9-oxime ether non-ketolides, and novel binding mode of alkylides with bacterial rRNA” (2013).

In brackets after ≈: the same amount, converted by molar mass.

Holding throughout (format): functional
The subject of experiment [1] is Staphylococcus aureus. Nature of the experiment: Antibacterial activity against methicillin-resistant, MLS-resistant (inducible) Staphylococcus aureus PU 32 by broth microdilution method.
In experiment [2] the test system is Staphylococcus epidermidis. Nature of the experiment: Antibacterial activity against methicillin-susceptible, MLS-resistant (inducible) Staphylococcus epidermidis E1 by broth microdilution method.
Experiment [3] deals with Staphylococcus aureus. Nature of the experiment: Antibacterial activity against methicillin-resistant, MLS-resistant (constitutive) Staphylococcus aureus PU 20 by broth microdilution method.
In experiment [4] the test system is Staphylococcus epidermidis. Nature of the experiment: Antibacterial activity against methicillin-resistant, MLS-resistant (constitutive) Staphylococcus epidermidis E2 by broth microdilution method.
In experiment [5] the test system is Staphylococcus epidermidis. Briefly: Antibacterial activity against methicillin-resistant, coagulase-negative, MLS-resistant (inducible) Staphylococcus epidermidis E3 by broth microdilution method.
The test system of experiment [6] is Staphylococcus aureus. Nature of the experiment: Antibacterial activity against erythromycin-susceptible Staphylococcus aureus ATCC 29213 by broth microdilution method.
The subject of experiment [7] is Streptococcus pyogenes. Briefly: Antibacterial activity against MLS-resistant (constitutive) Streptococcus pyogenes A2 by broth microdilution method.
For experiment [8], the system named is Streptococcus pneumoniae. Nature of the experiment: Antibacterial activity against MLS-resistant (constitutive), penicillin-susceptible Streptococcus pneumoniae PU27 by broth microdilution method.
The test system of experiment [9] is Streptococcus pneumoniae. Nature of the experiment: Antibacterial activity against penicillin-susceptible Streptococcus pneumoniae PU09 harboring mef gene by broth microdilution method.
For experiment [10], the system named is Streptococcus pneumoniae. Briefly: Antibacterial activity against MLS-resistant (constitutive), penicillin-resistant Streptococcus pneumoniae PU11 by broth microdilution method.
For experiment [11], the system named is Staphylococcus aureus. Nature of the experiment: Antibacterial activity against methicillin-susceptible, MLS-resistant (inducible) Staphylococcus aureus PU 64 by broth microdilution method.
Experiment [12] has as its system Streptococcus pyogenes. Nature of the experiment: Antibacterial activity against erythromycin-susceptible Streptococcus pyogenes A3 by broth microdilution method.
Experiment [13] has as its system Staphylococcus aureus. Briefly: Antibacterial activity against methicillin-resistant, […], MLS-resistant (constitutive) Staphylococcus aureus PU 19 by broth microdilution method.
The test system of experiment [14] is Streptococcus pneumoniae. Briefly: Antibacterial activity against erythromycin-susceptible Streptococcus pneumoniae ATCC 49619 by broth microdilution method.
Experiment [15] deals with Streptococcus dysgalactiae. Nature of the experiment: Antibacterial activity against erythromycin-resistant Streptococcus dysgalactiae A1 by broth microdilution method.

With `CC[C@H]1OC(=O)[C@H](C)[C@@H](O/C=C\Cc2cncnc2)[C@H](C)[C@@H](O[C@@H]2O[C@H](C)C[C@H](N(C)C)[C@H]2O)[C@](C)(OC)C[C@@H](C)/C(=N\OC/C=C/c2cnc3ccccc3c2)[C@H](C)[C@H]2OC(=O)O[C@@]21C`, the MIC in the experiment on Staphylococcus aureus [1] is more than 256 µg/mL; in experiment [2], more than 256 µg/mL; against Staphylococcus aureus [3], more than 256 µg/mL; in experiment [4] it was more than 256 µg/mL; in [5], more than 256 µg/mL; in the experiment on Staphylococcus aureus [6] it was 32 µg/mL (≈ 34.9 µM). Also, the MIC worked out at 64 µg/mL (≈ 69.9 µM) in the experiment with Streptococcus pyogenes [7]; 64 µg/mL (≈ 69.9 µM) against Streptococcus pneumoniae [8]; 32 µg/mL (≈ 34.9 µM) against Streptococcus pneumoniae [9]; 128 µg/mL (≈ 140 µM) against Streptococcus pneumoniae [10]; 32 µg/mL (≈ 34.9 µM) in the experiment with Staphylococcus aureus [11]; 2 µg/mL (≈ 2.18 µM) against Streptococcus pyogenes [12]. Further, the results for the MIC (against Staphylococcus aureus [13]; with Streptococcus pneumoniae [14]; in experiment [15]) were more than 256 µg/mL, 2 µg/mL (≈ 2.18 µM) and 16 µg/mL (≈ 17.5 µM), respectively.

For `CC[C@H]1OC(=O)[C@H](C)[C@@H](OC(=O)Cc2cccnc2)[C@H](C)[C@@H](O[C@@H]2O[C@H](C)C[C@H](N(C)C)[C@H]2O)[C@](C)(OC)C[C@@H](C)/C(=N\OC/C=C/c2cnc3ccccc3c2)[C@H](C)[C@H]2OC(=O)O[C@@]21C`, the minimal inhibitory concentration (MIC) with Staphylococcus aureus [1] is 64 µg/mL (≈ 69.8 µM); in [2] it was more than 256 µg/mL; in the experiment on Staphylococcus aureus [3] it was more than 256 µg/mL; in experiment [4], more than 256 µg/mL; in [5], more than 256 µg/mL; with Staphylococcus aureus [6], 64 µg/mL (≈ 69.8 µM). In addition, the MIC was 128 µg/mL (≈ 140 µM) against Streptococcus pyogenes [7]; 64 µg/mL (≈ 69.8 µM) against Streptococcus pneumoniae [8]; 8 µg/mL (≈ 8.72 µM) in the experiment with Streptococcus pneumoniae [9]; 128 µg/mL (≈ 140 µM) in the experiment with Streptococcus pneumoniae [10]; 32 µg/mL (≈ 34.9 µM) against Staphylococcus aureus [11]; 1 µg/mL (≈ 1.09 µM) in the experiment with Streptococcus pyogenes [12]. Besides, the minimum inhibitory concentration (MIC) was more than 256 µg/mL against Staphylococcus aureus [13], 2 µg/mL (≈ 2.18 µM) in the experiment on Streptococcus pneumoniae [14] and 16 µg/mL (≈ 17.4 µM) in experiment [15].

For `CC[C@H]1OC(=O)[C@H](C)C(=O)[C@H](C)[C@@H](O[C@@H]2O[C@H](C)C[C@H](N(C)C)[C@H]2O)[C@](C)(OC)C[C@@H](C)C(=O)[C@H](C)[C@H]2N(CCCCn3cnc(-c4cccnc4)c3)C(=O)O[C@]12C` [TELITHROMYCIN], the MIC against Staphylococcus aureus [1] is 1 µg/mL (≈ 1.23 µM); in experiment [2] it was 1 µg/mL (≈ 1.23 µM); against Staphylococcus aureus [3] it was more than 256 µg/mL; in experiment [4], more than 256 µg/mL; in experiment [5] it was 8 µg/mL (≈ 9.85 µM); with Staphylococcus aureus [6] it was 0.25 µg/mL (≈ 0.308 µM). Further, the MIC in the experiment on Streptococcus pyogenes [7] was 128 µg/mL (≈ 158 µM); in the experiment on Streptococcus pneumoniae [8] it was 0.125 µg/mL (≈ 0.154 µM); against Streptococcus pneumoniae [9], 0.125 µg/mL (≈ 0.154 µM); against Streptococcus pneumoniae [10] it was 4 µg/mL (≈ 4.93 µM); against Staphylococcus aureus [11] it was 0.5 µg/mL (≈ 0.616 µM); in the experiment on Streptococcus pyogenes [12] it was not above 0.008 µg/mL. Further, the results for the MIC (with Staphylococcus aureus [13]; in the experiment on Streptococcus pneumoniae [14]; in experiment [15]) were more than 256 µg/mL, not above 0.008 µg/mL and 2 µg/mL (≈ 2.46 µM), respectively.

Consider `CC[C@H]1OC(=O)[C@H](C)[C@@H](O[C@H]2C[C@@](C)(OC)[C@@H](O)[C@H](C)O2)[C@H](C)[C@@H](O[C@@H]2O[C@H](C)C[C@H](N(C)C)[C@H]2O)[C@](C)(O)C[C@@H](C)CN(C)[C@H](C)[C@@H](O)[C@]1(C)O` [AZITHROMYCIN], for which the MIC with Staphylococcus aureus [1] is more than 256 µg/mL; in [2], more than 256 µg/mL; in [4], more than 256 µg/mL; in [5], more than 256 µg/mL; in the experiment with Staphylococcus aureus [6], 2 µg/mL (≈ 2.67 µM); in the experiment on Streptococcus pyogenes [7], more than 256 µg/mL. The MIC with Streptococcus pneumoniae [9] was 64 µg/mL (≈ 85.4 µM); in the experiment with Streptococcus pneumoniae [10] it was more than 256 µg/mL; with Streptococcus pyogenes [12] it was not above 0.008 µg/mL; in the experiment on Staphylococcus aureus [13] it was more than 256 µg/mL; with Streptococcus pneumoniae [14], 0.25 µg/mL (≈ 0.334 µM); in experiment [15], 64 µg/mL (≈ 85.4 µM).

For `CC[C@H]1OC(=O)[C@H](C)[C@@H](OC(=O)Cc2ccccn2)[C@H](C)[C@@H](O[C@@H]2O[C@H](C)C[C@H](N(C)C)[C@H]2O)[C@](C)(OC)C[C@@H](C)/C(=N\OC/C=C/c2cnc3ccccc3c2)[C@H](C)[C@H]2OC(=O)O[C@@]21C`, the MIC was 64 µg/mL (≈ 69.8 µM) against Staphylococcus aureus [1]; 32 µg/mL (≈ 34.9 µM) in experiment [2]; more than 256 µg/mL in the experiment with Staphylococcus aureus [3]; more than 256 µg/mL in experiment [4]; 32 µg/mL (≈ 34.9 µM) in experiment [5]; 32 µg/mL (≈ 34.9 µM) against Staphylococcus aureus [6]. Further, the MIC against Streptococcus pyogenes [7] amounted to 32 µg/mL (≈ 34.9 µM); against Streptococcus pneumoniae [8], 32 µg/mL (≈ 34.9 µM); in the experiment on Streptococcus pneumoniae [9] it was 16 µg/mL (≈ 17.4 µM); against Streptococcus pneumoniae [10], 64 µg/mL (≈ 69.8 µM); in the experiment with Staphylococcus aureus [11], 32 µg/mL (≈ 34.9 µM); against Streptococcus pyogenes [12], 0.5 µg/mL (≈ 0.545 µM). Besides, the MIC was more than 256 µg/mL against Staphylococcus aureus [13], 1 µg/mL (≈ 1.09 µM) against Streptococcus pneumoniae [14] and 8 µg/mL (≈ 8.72 µM) in experiment [15].

As to `CC[C@H]1OC(=O)[C@H](C)C(=O)[C@H](C)[C@@H](O[C@@H]2O[C@H](C)C[C@H](N(C)C)[C@H]2O)[C@](C)(OC)C[C@@H](C)/C(=N\OC/C=C/c2ccc(C(=O)c3ccccc3)s2)[C@H](C)[C@H]2OC(=O)O[C@@]21C`, the MIC in the experiment with Staphylococcus aureus [1] is 16 µg/mL (≈ 18.7 µM); in experiment [2], 32 µg/mL (≈ 37.4 µM); in experiment [4], more than 256 µg/mL; in experiment [5], 64 µg/mL (≈ 74.8 µM); against Staphylococcus aureus [6] it was 16 µg/mL (≈ 18.7 µM); against Streptococcus pyogenes [7] it was 64 µg/mL (≈ 74.8 µM). Also, the MIC is 4 µg/mL (≈ 4.68 µM) in the experiment with Streptococcus pneumoniae [9]; 64 µg/mL (≈ 74.8 µM) against Streptococcus pneumoniae [10]; 2 µg/mL (≈ 2.34 µM) in the experiment with Streptococcus pyogenes [12]; more than 256 µg/mL against Staphylococcus aureus [13]; 2 µg/mL (≈ 2.34 µM) in the experiment with Streptococcus pneumoniae [14]; 4 µg/mL (≈ 4.68 µM) in experiment [15].

For the molecule `CC[C@H]1OC(=O)[C@H](C)[C@@H](OC(=O)Cc2ccccn2)[C@H](C)[C@@H](O[C@@H]2O[C@H](C)C[C@H](N(C)C)[C@H]2O)[C@](C)(OC)C[C@@H](C)/C(=N\OCC#Cc2cncc3ccccc23)[C@H](C)[C@H]2OC(=O)O[C@@]21C`, the MIC against Staphylococcus aureus [1] is 32 µg/mL (≈ 35 µM); in experiment [2], more than 256 µg/mL; with Staphylococcus aureus [3] it was more than 256 µg/mL; in [4], more than 256 µg/mL; in experiment [5] it was more than 256 µg/mL; against Staphylococcus aureus [6], 32 µg/mL (≈ 35 µM). Moreover, the MIC is 32 µg/mL (≈ 35 µM) against Streptococcus pyogenes [7]; 32 µg/mL (≈ 35 µM) against Streptococcus pneumoniae [8]; 8 µg/mL (≈ 8.74 µM) against Streptococcus pneumoniae [9]; 32 µg/mL (≈ 35 µM) with Streptococcus pneumoniae [10]; 16 µg/mL (≈ 17.5 µM) against Staphylococcus aureus [11]; 8 µg/mL (≈ 8.74 µM) against Streptococcus pyogenes [12]. The results for the MIC (in the experiment on Staphylococcus aureus [13]; against Streptococcus pneumoniae [14]; in experiment [15]) were more than 256 µg/mL, 1 µg/mL (≈ 1.09 µM) and 8 µg/mL (≈ 8.74 µM), respectively.

Turning to `CC[C@H]1OC(=O)[C@H](C)C(=O)[C@H](C)[C@@H](O[C@@H]2O[C@H](C)C[C@H](N(C)C)[C@H]2O)[C@](C)(OC)C[C@@H](C)/C(=N\OC/C=C/c2ccc(-c3ccccn3)s2)[C@H](C)[C@H]2OC(=O)O[C@@]21C`, the MIC was 8 µg/mL (≈ 9.66 µM) against Staphylococcus aureus [1]; 32 µg/mL (≈ 38.6 µM) in experiment [2]; more than 256 µg/mL in experiment [4]; 64 µg/mL (≈ 77.3 µM) in [5]; 8 µg/mL (≈ 9.66 µM) against Staphylococcus aureus [6]; 64 µg/mL (≈ 77.3 µM) in the experiment on Streptococcus pyogenes [7]. The minimal inhibitory concentration (MIC) in the experiment with Streptococcus pneumoniae [9] was 4 µg/mL (≈ 4.83 µM); with Streptococcus pneumoniae [10], 64 µg/mL (≈ 77.3 µM); against Streptococcus pyogenes [12], 0.5 µg/mL (≈ 0.604 µM); with Staphylococcus aureus [13], 128 µg/mL (≈ 155 µM); in the experiment with Streptococcus pneumoniae [14], 0.5 µg/mL (≈ 0.604 µM); in experiment [15], 4 µg/mL (≈ 4.83 µM).

Regarding `CC[C@H]1OC(=O)[C@H](C)C(=O)[C@H](C)[C@@H](O[C@@H]2O[C@H](C)C[C@H](N(C)C)[C@H]2O)[C@](C)(OC)C[C@@H](C)/C(=N\OC/C=C/c2ccc(-c3cccs3)cc2)[C@H](C)[C@H]2OC(=O)O[C@@]21C`, the MIC amounted to 64 µg/mL (≈ 77.4 µM) in the experiment with Staphylococcus aureus [1]; 64 µg/mL (≈ 77.4 µM) in [2]; 256 µg/mL (≈ 310 µM) in [4]; 64 µg/mL (≈ 77.4 µM) in [5]; 32 µg/mL (≈ 38.7 µM) in the experiment on Staphylococcus aureus [6]; 32 µg/mL (≈ 38.7 µM) in the experiment with Streptococcus pyogenes [7]. Moreover, the MIC in the experiment with Streptococcus pneumoniae [9] came to 16 µg/mL (≈ 19.3 µM); in the experiment on Streptococcus pneumoniae [10], 64 µg/mL (≈ 77.4 µM); in the experiment on Streptococcus pyogenes [12], 1 µg/mL (≈ 1.21 µM); in the experiment on Staphylococcus aureus [13], 64 µg/mL (≈ 77.4 µM); against Streptococcus pneumoniae [14], 2 µg/mL (≈ 2.42 µM); in experiment [15], 16 µg/mL (≈ 19.3 µM).
